The values that follow come from publication PMC8879200, “Design, Synthesis, and Biological Evaluation of 4,4’-Difluorobenzhydrol Carbamates as Selective M1 Antagonists” (Pharmaceuticals, 2022).

In one data set the target is T1, hM1 (Homo sapiens, UniProt P11229).
T1 construct: host or cells: CHO-K1, stably transfected
T1 sequence (P11229 1-460): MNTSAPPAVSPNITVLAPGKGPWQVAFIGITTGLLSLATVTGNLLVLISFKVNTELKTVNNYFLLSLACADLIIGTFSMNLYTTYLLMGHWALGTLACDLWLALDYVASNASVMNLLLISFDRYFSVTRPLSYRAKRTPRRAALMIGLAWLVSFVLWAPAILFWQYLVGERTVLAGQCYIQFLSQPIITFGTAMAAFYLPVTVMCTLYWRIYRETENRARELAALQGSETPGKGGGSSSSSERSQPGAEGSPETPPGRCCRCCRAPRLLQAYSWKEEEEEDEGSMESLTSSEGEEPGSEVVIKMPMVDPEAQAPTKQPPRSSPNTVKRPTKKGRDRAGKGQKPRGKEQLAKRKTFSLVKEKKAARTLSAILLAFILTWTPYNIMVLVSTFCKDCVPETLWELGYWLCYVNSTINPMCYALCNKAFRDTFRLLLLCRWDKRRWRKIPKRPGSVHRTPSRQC
Kind of data set: Competitive [3H]NMS radioligand binding, CHO-hM1 cell membranes. The settings on record: inhibition of [3H]NMS binding, CHO-hM1 membranes; read-out: Affinity: Ki ± SD, hM1. How it is done: (§1) We first assessed the carbamates’ affinities for human muscarinic acetylcholine receptors subtypes hM1–5 by means of a competitive radioligand binding assay displacing [N-methyl-^3H]scopolamine methyl chloride ([^3H]NMS) in cell membranes expressing the individual receptors.
(§2) Cell membranes bearing hM1-hM5 receptors were prepared as described previously. Briefly, stably transfected CHO-K1 cells were grown to at least 80% confluency in T175 flasks, washed with ice-cold DPBS, and scraped into a mixture of ice-cold of 2 mL 10 mM Tris-HCl, 1 mM EDTA-buffer, pH 7.4 and 200 µL protease inhibitor. A cell homogenate was prepared by passing the cell suspension through a G29 needle. The cell homogenates corresponding to two T175 flasks were combined and subsequently centrifuged (10 min, 1000 × g, 4 °C). Ultracentrifugation of the supernatant (1 h, 100,000 × g, 4 °C) yielded a membrane pellet, which was suspended in 250 µL 50 mM Tris-HCl buffer, pH 7.4 and stored at −80 °C.
(§3) Maximum binding was measured by using 5 µL DMSO, and nonspecific binding was measured by using 5 µL of 1 µM scopolamine in DMSO. […] The membrane-bound radioactivity was recovered by filtration through Whatman™ GF/B glass fibre filters pre-soaked in aqueous 0.1% PEI using an M-36 tygon tubed cell harvester (Brandel®, Gaithersburg, MD, USA). Membranes were washed 3 times with ice-cold washing buffer (50 mM Tris, pH 7.4) before being dried, transferred to 2 mL scintillation cocktail (UltimaGold™, high flashpoint LSC cocktail, PerkinElmer, Waltham, MA, USA) and counted in a β -counter (Hidex TDCR Liquid Scintillation Counter in CPM mode). IC50 values were calculated by a variable slope logistic regression using at least five distinct concentrations of test compounds, pipetted in triplicates.

Another data set deals with T2, hM2 (Homo sapiens, UniProt P08172).
T2 construct: host or cells: CHO-K1, stably transfected
T2 sequence (P08172 1-466): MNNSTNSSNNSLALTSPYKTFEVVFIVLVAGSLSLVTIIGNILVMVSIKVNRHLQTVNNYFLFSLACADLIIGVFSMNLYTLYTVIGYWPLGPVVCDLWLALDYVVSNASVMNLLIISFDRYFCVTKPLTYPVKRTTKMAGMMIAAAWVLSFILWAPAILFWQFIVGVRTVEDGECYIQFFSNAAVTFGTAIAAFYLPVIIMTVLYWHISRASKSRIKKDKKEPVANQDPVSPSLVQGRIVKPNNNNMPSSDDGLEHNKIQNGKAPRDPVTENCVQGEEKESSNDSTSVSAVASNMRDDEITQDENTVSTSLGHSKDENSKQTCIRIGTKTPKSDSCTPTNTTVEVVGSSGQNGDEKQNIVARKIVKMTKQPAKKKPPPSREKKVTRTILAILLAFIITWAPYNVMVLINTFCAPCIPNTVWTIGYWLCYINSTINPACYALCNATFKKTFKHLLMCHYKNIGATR
As to the kind of experiment: Competitive [3H]NMS radioligand binding, CHO-hM2 cell membranes. The settings on record: for Ki: read-out: Affinity: Ki ± SD, hM2. As to the method: as §1, §2, §3

In the next data set the target is T3, hM3 (Homo sapiens, UniProt P20309).
T3 construct: host or cells: CHO-K1, stably transfected
Kind of data set: Competitive [3H]NMS radioligand binding, CHO-hM3 cell membranes. The settings on record: for Ki: read-out: Affinity: Ki ± SD, hM3. As to the method:
as §1, §2, §3

A further data set deals with T4, hM4 (Homo sapiens, UniProt P08173).
T4 construct: host or cells: CHO-K1, stably transfected
T4 sequence (P08173 1-479): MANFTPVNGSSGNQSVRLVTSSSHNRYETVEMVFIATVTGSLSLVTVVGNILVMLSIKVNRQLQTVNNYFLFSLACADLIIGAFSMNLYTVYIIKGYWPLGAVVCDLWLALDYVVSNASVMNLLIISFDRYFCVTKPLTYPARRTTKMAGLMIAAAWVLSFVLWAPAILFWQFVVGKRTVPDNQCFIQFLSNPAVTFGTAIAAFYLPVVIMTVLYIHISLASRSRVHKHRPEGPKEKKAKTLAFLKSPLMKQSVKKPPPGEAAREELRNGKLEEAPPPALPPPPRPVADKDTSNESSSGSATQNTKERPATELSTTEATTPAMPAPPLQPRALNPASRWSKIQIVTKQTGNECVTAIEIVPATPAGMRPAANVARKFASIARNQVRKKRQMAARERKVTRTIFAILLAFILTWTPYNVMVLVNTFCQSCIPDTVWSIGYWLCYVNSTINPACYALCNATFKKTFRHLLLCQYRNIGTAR
As to the kind of experiment: Competitive [3H]NMS radioligand binding, CHO-hM4 cell membranes. Particulars: for Ki: inhibition of [3H]NMS binding, CHO-hM4 membranes, read-out: Affinity: Ki ± SD, hM4. How it is done: as §1, §2, §3

In a further data set the target is T5, hM5 (Homo sapiens, UniProt P08912).
T5 construct: host or cells: CHO-K1, stably transfected
T5 sequence (P08912 1-532): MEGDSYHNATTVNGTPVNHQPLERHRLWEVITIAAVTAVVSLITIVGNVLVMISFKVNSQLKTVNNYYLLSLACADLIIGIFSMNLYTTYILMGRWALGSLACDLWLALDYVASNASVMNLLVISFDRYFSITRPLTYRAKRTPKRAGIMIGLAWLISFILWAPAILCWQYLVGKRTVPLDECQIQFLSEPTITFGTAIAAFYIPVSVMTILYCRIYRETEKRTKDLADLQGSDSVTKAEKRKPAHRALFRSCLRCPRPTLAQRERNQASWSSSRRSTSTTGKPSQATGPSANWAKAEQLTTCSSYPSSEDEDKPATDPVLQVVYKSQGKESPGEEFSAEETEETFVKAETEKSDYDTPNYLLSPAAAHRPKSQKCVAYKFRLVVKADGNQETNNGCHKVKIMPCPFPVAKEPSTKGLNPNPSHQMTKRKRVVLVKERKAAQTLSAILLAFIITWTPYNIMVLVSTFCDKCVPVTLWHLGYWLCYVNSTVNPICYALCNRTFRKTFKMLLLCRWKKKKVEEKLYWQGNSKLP
Kind of data set: Competitive [3H]NMS radioligand binding, CHO-hM5 cell membranes. Particulars: for Ki: inhibition of [3H]NMS binding, CHO-hM5 membranes, read-out: Affinity: Ki ± SD, hM5. How it is done:
as §1, §2, §3

A further data set can be described thus: physchem. The settings on record: pH 7.4.
Data set [1] can be described thus: High throughput HPLC-logD (lipophilicity). Particulars: pH 7.4.
Procedure: (§4) Briefly, a mixture of toluene (≥98%, Sigma-Aldrich, St. Louis, MO, USA) and triphenylene (≥99.9%, Carl Roth, Karlsruhe, Germany) was used as internal standard. Each sample was dissolved in the internal standard mixture. Using gradient elution, the injection volume was set to 7 µL, the flow rate was 1.5 mL/min, and the mobile phase consisted of a mixture of methanol and 0.01 M sodium phosphate buffer pH 7.4. The HPLC-logD values were derived from the measured retention times following the previously published equation [27, 30].
A short description of data set [2]: Stability in fully supplemented RPMI1640 cell culture medium. It counts as in vitro ADME. The settings on record: fully supplemented RPMI1640, ambient temperature, after 24 h. How it is done: Since the decomposition in cell culture medium of compounds designated for biological testing could impair potential assay readouts, the stabilities of one tertiary carbamate (3) and one secondary carbamate (7) were investigated as representatives for the compound set 1–12. Gratifyingly, the rate of decomposition in fully supplemented RPMI1640 cell culture medium at ambient temperature has been fairly slow, with > 95% of both compounds remaining intact after 24 h (Supplementary Materials, Figure S3). Such stability is adequate with the requirements for carbon-11 labelled PET tracers of around 2–3 half-lives.
The stabilities of 3 and 7 were measured using the HPLC gradient method as described for the purity determination. 4 µL of a test compound’s stock solution in DMSO was diluted with fully supplemented RPMI1640 cell culture medium (10% FBS, 1% L-glutamine, without antibiotics). The stability was measured at ambient temperature and the column oven was set to 20 °C. The samples were measured at 0, 30, 60, 120 min and 24 h.

Where two headings read alike, the source gives them in different places.

T3 sequence (P20309 whole entry): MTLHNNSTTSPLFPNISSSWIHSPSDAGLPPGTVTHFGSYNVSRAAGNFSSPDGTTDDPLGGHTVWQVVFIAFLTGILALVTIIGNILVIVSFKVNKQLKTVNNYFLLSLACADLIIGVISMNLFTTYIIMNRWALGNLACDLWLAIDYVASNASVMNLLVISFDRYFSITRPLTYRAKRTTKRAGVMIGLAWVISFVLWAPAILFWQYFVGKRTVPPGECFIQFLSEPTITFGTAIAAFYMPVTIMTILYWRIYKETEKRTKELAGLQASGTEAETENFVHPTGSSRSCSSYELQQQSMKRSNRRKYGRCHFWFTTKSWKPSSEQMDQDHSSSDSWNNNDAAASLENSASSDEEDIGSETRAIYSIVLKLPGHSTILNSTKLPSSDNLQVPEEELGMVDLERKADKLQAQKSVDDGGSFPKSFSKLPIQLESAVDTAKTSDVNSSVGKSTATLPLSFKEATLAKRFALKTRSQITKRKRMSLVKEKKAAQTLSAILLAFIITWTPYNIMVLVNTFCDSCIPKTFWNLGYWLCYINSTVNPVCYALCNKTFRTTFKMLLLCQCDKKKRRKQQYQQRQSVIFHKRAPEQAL
Procedure for physchem: as §4

Take `CN1C2CCCC1CC(NC(=O)OC(c1ccc(F)cc1)c1ccc(F)cc1)C2` [Compound 8, Bis(4-fluorophenyl)methyl ((1R,3s,5S)-9-methyl-9-azabicyclo[3.3.1]nonan-3-yl)carbamate]: the inhibitory constant (Ki) on hM1 is 0.475 ± 0.0885 µM; at hM2 (inhibition of [3H]NMS binding, CHO-hM2 membranes, >1000 values from two independent experiments) it was 0.624 ± 0.104 µM; on hM3 (inhibition of [3H]NMS binding, CHO-hM3 membranes, >1000 values from two independent experiments) it was above 1 µM; on hM4, 0.563 ± 0.0734 µM; on hM5, 0.521 ± 0.173 µM. Besides, the chromatographic logD in “physchem” was 3.21 ± 0.03.

As for `CN1CCC(NC(=O)OC(c2ccc(F)cc2)c2ccc(F)cc2)C1` (stereo not drawn) [Compound 9, Bis(4-fluorophenyl)methyl (1-methylpyrrolidin-3-yl)carbamate], the melting point lay in the range of 84 to 86 °C. For the same compound, the inhibitory constant (Ki) on hM1 is 0.0678 ± 0.0054 µM. In addition, the “x-Fold selectivity for hM1 vs. hM2” value on hM2 (ratio of Ki values hM2/hM1) was 10.6 fold. In addition, the Ki on hM2 was found to be 0.722 ± 0.101 µM. Also, the “x-Fold selectivity for hM1 vs. hM3” value on hM3 (ratio of Ki values hM3/hM1) came to 2.7 fold. For the same compound, the inhibition constant (Ki) at hM3 is 0.181 ± 0.0681 µM. For the same compound, the inhibition constant Ki on hM4 came out at 0.144 ± 0.0373 µM. Also, on hM4 (ratio of Ki values hM4/hM1), the “x-Fold selectivity for hM1 vs. hM4” value is given as 2.1 fold. The inhibition constant Ki at hM5 stood at 0.0645 ± 0.0228 µM. Moreover, the “x-Fold selectivity for hM1 vs. hM5” value at hM5 (ratio of Ki values hM5/hM1) is given as 1.0 fold. Besides, the chromatographic logD in [1] was determined as 2.8 ± 0.1.

Regarding `CN1CCCC(NC(=O)OC(c2ccc(F)cc2)c2ccc(F)cc2)C1` (stereo not drawn) [Compound 7, Bis(4-fluorophenyl)methyl (1-methylpiperidin-3-yl)carbamate], the “Compound remaining intact in cell culture medium” value in data set [2] is reported as above 95%. For the same compound, the Ki at hM1 came out at 0.00122 ± 6e-05 µM; on hM2, 0.0328 ± 0.0114 µM; at hM3, 0.0161 ± 0.0045 µM; on hM4, 0.0062 ± 0.0021 µM; on hM5, 0.0037 ± 0.0013 µM. Further, the chromatographic logD in data set [1] turned out to be 2.2 ± 0.2.
